# Reference: US5792742A, “Fibrin-binding peptide fragments of fibronectin” (New York University, priority 1994, dated 1998)
# Key:
# [1] = system: fibrin; assay: Reversibility (displacement) of 125I-11 kDa FBP binding to fibrin; settings: 2,000 nM unlabeled peptide (22.2 molar excess)
# Experimental: Detachable microtiter wells previously coated with 15 ng of fibrin were incubated with 100 ng/0.1 ml FBB (90 nM) of ^125 I-11 kDa for 1 hour at 22° C. The unbound radiolabeled protein was removed by extensive washing with FBB containing 0.1% Tween 20. […] The iodinated 11 kDa that remained bound to the removable wells was determined by quantitating the radioactivity attached to the individual wells in a gamma counter. Results were expressed as percentage of control wells incubated with buffer alone.
# [2] = system: fibrin; assay: Rebinding of eluted 11 kDa fragment to fibrin column; assay type: binding, bovine
# Experimental: Thus, although 100% of the 11 kDa peptide that was applied to the column could be eluted, only 40-50% of the protein rebound to a second fibrin column at 4° C., and only 20% bound at 37° C.
# The 11 kDa peptide of fibronectin (or 25.9 kDa peptide) and genetically engineered and expressed proteins of fibronectin type I repeat modules are subjected to fibrin-SEPHAROSE™ chromatography as described above.
# [3] = system: fibrin; assay: Fibrin-SEPHAROSE affinity chromatography (binding and elution); parameters: species or system bovine; settings: temperature change vs denaturing conditions (6M urea or 50% ethylene glycol) for elution
# Experimental: Bovine fibrinogen was cross-linked to CNBr-activated SEPHAROSE™ (5 mg/ml beads) according to the manufacturer's instructions. Coupled fibrinogen was subsequently converted to fibrin by incubation with human thrombin to a final concentration of 5 NIH units/ml and 100 K.I. (kallikrein inhibitory) units/ml of aprotinin (in 0.05M Tris-HCI buffer, pH 7.6, containing 0.1M NaCl and 0.01M EDTA) for three hours, at room temperature (Gold, et al. (1983) Biochemistry 22, 4113-4119).
# 1.0M NaCl in 0.05M tris buffer, pH 8.0.
# The fibrin-binding activity of the proteolytically derived 25.9 kDa fragment of Fn was determined by its ability to bind to a fibrin affinity matrix. […] FBB was used to equilibrate and wash the column. Following warming of the column to 22° C., the column was washed with FBB until absorbance at 280 nm (A280) was less than 0.01, and bound protein eluted with 0.05M Tris-HCl, 0.5M NaCl, 6M urea buffer, pH 7.6.
# The module (500 μg/1.0 ml) was incubated for 4 hours (while rotating) at 4° C. in the presence of 1.0 ml fibrin-SEPHAROSE™ (5 mg fibrin/ml SEPHAROSE™ beads) equilibrated in […] Tris-HCl, 0.1M NaCl buffer, pH 7.6.
# The 11 KDa peptide (50 μg/0.206 ml) was radiolabeled using the IODO-BEAD method (Pierce Chemical). The peptide was added to one IODO-BEAD in the presence of 100 μCi ^125 I (17.4 Ci/mg, New England Nuclear) and incubated on ice for 10 minutes. The bead was removed and the free ^125 I removed by chromatography through a PD10 column containing SEPHADEX™ G-25 (Pharmacia). […] The radioiodinated 11 kDa fibrin-binding peptide (500 μg/1.5 ml) was combined with 1 ml of fibrin-SEPHAROSE™ (5 mg fibrin/ml beads) equilibrated with 50 mM Tris-HCl, 0.1M NaCl buffer, pH 7.6, and rotated for 4 hours, at 4° C. The mixture was poured onto a disposable column (0.6 cm×8.0) and the unbound protein washed through. The column was equilibrated to room temperature and washed with the equilibration buffer.
# [4] = system: fibrin; assay: Competitive inhibition of 125I-11 kDa binding to fibrin-coated wells; settings: 125I-11 kDa 90 nM
# Experimental: Analysis of the binding data was performed by non linear regression and curve fitting to the one-site competitive binding curves (GraphPad Prism).
# [5] = system: fibrin; assay: Direct binding ELISA on fibrin-coated microtiter plates
# Experimental: The preparation of fibrin coated microtiter plates was adapted from a method described by Christman et al., Biochim. Biophys. Acta. […] Microtiter (Immulon) plates were coated with fibrinogen at a concentration of 50-1000 ng/well/0.1 ml of Tris buffered saline (TBS). The plates were dried for 24 hours at 37° C. and 0.1 ml of thrombin (20 NIH units/100 ml) containing TRASYLOL™ (aprotinin) (400 K.I units/100 ml) in TBS was added to each well and the plates incubated for 2 hours at 37° C. Each well is washed one time with PBS and the plates are blocked for 1.5 hours with 1% BSA in TBS to prevent non-specific binding. A constant concentration of fibronectin and the 11 kDa fibrin-binding polypeptide (500 ng/0.1 ml) in 50 mM Tris-HCl, 0.1M NaCl, pH 7.6 (FBB) were incubated separately with fibrin coated microtiter wells (50-1000 ng) for 1 hr at room temperature (23° C.).
# The wells were washed three times with FBB containing 0.05% Tween 20 (FBBT) and incubated for 1 hour with 0.05 ml of the a polyclonal anti-fibronectinantiserum (Calbiochem) or the purified IgG fraction of anti-11 kDa rabbit antisera, respectively, at a concentration of 1 μg/ml in FBBT containing 0.1% BSA (FBBT/BSA). Following three washes with FBBT, the wells were incubated with 0.05 ml of alkaline phosphatase labeled goat anti-rabbit IgG (TAGO) at a concentration of 2 μg/ml in FBBT/BSA, for 1 hour. The reaction was developed with 0.05 ml of […] p-nitrophenyl phosphate (Sigma phosphatase substrate tablets) in 10% diethanolamine, pH 9.8 containing 1 mM MgCl2.
# 2. […] Binding of ^4 F1.^5 F1 to fibrin coated microtiter plates was examined by ELISA as described above. Microtiter wells were coated with fibrin (50-1000 ng) and blocked, as described earlier, and incubated with the module pair ^4 F1.^5 F1 (500 ng/0.1 ml or 1000 ng/0.1 ml in FBB) for 1 hour, at room temperature.
# Fibrin-binding activity was also assessed by an ELISA. Fn was reacted with fibrin-coated microtiter plates and bound Fn was determined by incubation with a polyclonal rabbit anti-Fn antiserum followed by alkaline phosphatase-labeled anti-rabbit Ig.
# [6] = system: fibrin; assay: Elution of 11 kDa fragment from fibrin-SEPHAROSE with various agents (Table III); assay type: binding, bovine; settings: rotated in the cold overnight
# Experimental: Since complete recovery of fibrin-binding activity was desired for use of the molecule in clinical application, various buffers were tested in an attempt to optimize recovery of the peptide while retaining maximal biological activity.
substance,measurement,setting,value
"11 kDa FBP: 11 kDa C-terminal proteolytic (subtilisin) fibrin-binding fragment of human plasma fibronectin, residues 2123-2232 of SEQ ID NO:1",% of bound iodinated 11 kDa reversibly displaced,[1],42%
same,% Rebound to fibrin,"[2]; 4° C., eluted with 1.0M KBr",7-10%
same,% Rebound to fibrin,"[2]; 4° C., eluted with 2.0M Urea",60%
same,% Rebound to fibrin,"[2]; 4° C., eluted with 4.0M Urea",45-52%
same,% Rebound to fibrin,"[2]; 4° C., eluted with 6.0M Urea",40-50%
same,% Rebound to fibrin,"[2]; 4° C., eluted with 6.0M Urea (step dialysis)",40-50%
same,% Rebound to fibrin,"[2]; 4° C., eluted with ethylene glycol, listed as 11 kDa FRAGMENT",80%
same,% Rebound to fibrin,"[2]; 4° C., eluted with ethylene glycol, listed as 11 kDa peptide",60%
same,% Rebound to fibrin,"[2]; 37° C., eluted with 6.0M urea",20%
same,% Rebound to fibrin,"[2]; 37° C., eluted with ethylene glycol",49.5%
same,relative affinity for fibrin (from elution conditions),[3],markedly higher
same,concentration at which maximum inhibition was achieved,[4],4 µM
same,molar excess at maximum inhibition,[4],44.4
same,IC50,"[4]; 15 ng fibrin, 1 hour 22° C., read-out: IC50, 125I-11 kDa binding to fibrin decreased by 50%",605 nM
same,amount bound relative to intact fibronectin on a mole-per-mole basis,[5],20 times
same,amount giving maximum binding per 550 ng of fibrin,[5],approximately 500 ng
same,binding to fibrin-coated wells,"[5]; ELISA, room temperature, 1 hr",bound to the fibrin-coated wells in a concentration dependent manner
same,% ELUTED from fibrin-SEPHAROSE,"[6]; agent 1.0M Arginine, listed as 11 kDa FIBRIN-BINDING FRAGMENT",26%
same,% ELUTED from fibrin-SEPHAROSE,"[6]; agent 1.0M Arginine, listed as 11 kDa peptide",25%
same,% ELUTED from fibrin-SEPHAROSE,[6]; agent 1.0M KBr,55-65%
same,% ELUTED from fibrin-SEPHAROSE,[6]; agent 2.0M Urea,32%
same,% ELUTED from fibrin-SEPHAROSE,[6]; agent 4.0M Urea,50-60%
same,% ELUTED from fibrin-SEPHAROSE,[6]; agent 6.0M Urea,100%
same,% ELUTED from fibrin-SEPHAROSE,"[6]; agent 50% ethylene glycol, pH 11.5",77%
